Several values for one entry are separate records, joined by “and”; a condition that tells them apart may be missing. Equal values may be shown once. Entries after “also recorded” stand apart in the source; their conditions may differ.
Experiments:
[1] = system: CQ-resistant Pf Dd2 strain; assay: In vitro antiplasmodial activity, SYBR green I fluorescence, Dd2 strain; type: cell-based, Plasmodium falciparum; conditions: for activity against the Dd2 strain: aminoquinolines without the arylvinyl group; for resistance index (RI): RI = Dd2 EC50/3D7 EC50; for EC50: read-out: EC50 against the Dd2 strain, CQ-resistant Pf Dd2, 72 h incubation
[2] = system: P. berghei ANKA strain expressing luciferase; assay: In vivo antimalarial activity: elimination of existing infection; set-up: species or system Swiss-Webster female mice; conditions: 25 mg/kg daily p.o., monophosphate salts, treatment from 48 h post infection
[3] = system: P. berghei ANKA 676m1cl1; assay: Assessment of the curative property; type: in vivo, BALB/c female mice
[4] = system: β-hematin crystal formation; assay: β-Hematin formation inhibition; type: biochemical; conditions: 100 μM hemin, 16 h, 37 °C, highest concentration tested 200 μM
[5] = system: malaria infection; conditions: 30 mg/kg ref 61; cited from earlier work
[6] = system: synchronized P. falciparum Dd2 cultures; assay: Stage-specific action; type: cell-based, Plasmodium falciparum; conditions: for stage-specific action on cell cycle progression: 5 × EC50 (DHA 50 nM, atovaquone 6.6 nM) added at 6, 18, 30, 42 HPI
[7] = system: HepG2 cells; assay: In vitro cytotoxicity assay; type: cell-based, human; conditions: for selectivity index (SI): SI = HepG2 EC50/Dd2 EC50
[8] = system: P. falciparum Dd2 cultures; assay: Transmission electron microscopy of treated parasites; type: cell-based, Plasmodium falciparum; conditions: 5 × EC50 for 1.5, 3, 6 or 12 h
[9] = mouse liver microsomes, 15, 30 and 60 min, tentative assignment
[10] = system: CQ-sensitive 3D7 strain; assay: In vitro antiplasmodial activity, SYBR green I fluorescence, 3D7 strain; type: cell-based, Plasmodium falciparum

COc1ccc2nc(C)cc(NCCN(C)C)c2c1 [6a, N^1-(6-Methoxy-2-methylquinolin-4-yl)-N^2,N^2-dimethylethane-1,2-diamine]
activity against the Dd2 strain [1]: inactive

Cc1cc(NCCN(C)C)c2cc(Cl)ccc2n1 [6c, N^1-(6-Chloro-2-methylquinolin-4-yl)-N^2,N^2-dimethylethane-1,2-diamine]
activity against the Dd2 strain [1]: inactive

Cc1cc(NCCCCN(C)C)c2cc(Cl)ccc2n1 [6e, N^1-(6-Chloro-2-methylquinolin-4-yl)-N^4,N^4-dimethylbutane-1,4-diamine]
activity against the Dd2 strain [1]: inactive

CN(C)CCNc1cc(/C=C/c2ccc(C(F)(F)F)cc2)nc2ccc(Cl)cc12.O=P(O)(O)O [24s, (E)-N^1-(6-Chloro-2-(4-(trifluoromethyl)styryl)quinolin-4-yl)-N^2,N^2-dimethylethane-1,2-diamine Monophosphate Salt]
effect on malaria infection (bioluminescence day 7) [2]: full protection and cure
mice cured (no parasites in blood smears / 100% reduction of parasitemia) ([3]; 100 mg/kg p.o. once daily for 4 days): no parasites were detected and 5/5
body weight change ([3]; 25 and 100 mg/kg p.o.): no significant weight loss
tolerability / signs of toxicity ([3]; 25 and 100 mg/kg p.o.): well tolerated; also recorded: no apparent signs of toxicity

CN(C)CCNc1cc(/C=C/c2ccc(F)cc2)nc2ccc(Cl)cc12.O=P(O)(O)O [29s, (E)-N^1-(6-Chloro-2-(4-fluorostyryl)quinolin-4-yl)-N^2,N^2-dimethylethane-1,2-diamine Monophosphate Salt]
effect on malaria infection (bioluminescence day 7) [2]: effectively cleared the parasites

CN1CCN(CCNc2cc(/C=C/c3ccc(F)cc3)nc3ccc(Cl)cc23)CC1.O=P(O)(O)O [86s, (E)-6-Chloro-2-(4-fluorostyryl)-N-(2-(4-methylpiperazin-1-yl)-ethyl)quinolin-4-amine Monophosphate Salt]
effect on malaria infection (bioluminescence day 7) [2]: ineffective

CCN(CC)CCCC(C)Nc1ccnc2cc(Cl)ccc12 (stereo not drawn) [CQ, chloroquine, reference compound]
inhibition of β-hematin formation [4]: strongly inhibited β-hematin formation
mean survival time (MSD) [5]: 24 days

C[C@H]1[C@@H](O)O[C@@H]2O[C@@]3(C)CC[C@H]4[C@H](C)CC[C@@H]1[C@@]24OO3 [DHA, dihydroartemisinin, reference compound]
stage-specific action on cell cycle progression [6]: inhibition of all stages

O=C1C(O)=C([C@H]2CC[C@H](c3ccc(Cl)cc3)CC2)C(=O)c2ccccc21 [atovaquone, reference compound]
stage-specific action on cell cycle progression [6]: no inhibition in late stages

COc1ccc2nc(/C=C/c3ccccc3)cc(NCCN(C)C)c2c1 [compound 8, (E)-N^1-(6-Methoxy-2-styrylquinolin-4-yl)-N^2,N^2-dimethylethane-1,2-diaminei]
resistance index (RI) [1]: ≥ 1.5

COc1ccc2nc(/C=C/c3ccc(OC)c(OC)c3)cc(NCCN(C)C)c2c1 [compound 13, (E)-N^1-(2-(3,4-Dimethoxystyryl)-6-methoxyquinolin-4-yl)-N^2,N^2-dimethylethane-1,2-diamine]
resistance index (RI) [1]: ≥ 1.5

COc1ccc2nc(/C=C/c3cc(OC)c(OC)c(OC)c3)cc(NCCN(C)C)c2c1 [compound 14, (E)-N^1-(6-Methoxy-2-(3,4,5-trimethoxystyryl)quinolin-4-yl)-N^2,N^2-dimethylethane-1,2-diamine]
resistance index (RI) [1]: ≥ 1.5

COc1ccc(/C=C/c2cc(NCCN(C)C)c3cc(F)ccc3n2)cc1OC [compound 20, (E)-N^1-(2-(3,4-Dimethoxystyryl)-6-fluoroquinolin-4-yl)-N^2,N^2-dimethylethane-1,2-diamine]
fold improved activity compared to compound 13 ([1]; Dd2): approximately 4.5 fold

CN(C)CCNc1cc(/C=C/c2ccc(C(F)(F)F)cc2)nc2ccc(Cl)cc12 [compound 24, (E)-N^1-(6-Chloro-2-(4-(trifluoromethyl)styryl)quinolin-4-yl)-N^2,N^2-dimethylethane-1,2-diamine]
selectivity index (SI) [7]: > 1000
inhibition of β-hematin formation [4]: very low activity against β-hematin crystal formation; also recorded: weaker inhibitory activity toward β-hematin formation as compared with CQ
stage-specific action on cell cycle progression [6]: blocked when the compound was added at 6, 18, and 30 HPI
effect on cell cycle when added at 42 HPI ([6]; 5 × EC50, added at 42 HPI): did not affect the schizont maturation or the reinvasion of new merozoites
ultrastructural effect (TEM) [8]: appearance of membrane-bound structures within the parasite DV
metabolites / metabolic pathway identified by LC–MS [9]: N-demethylation was the primary metabolic route

CN(C)CCNc1cc(/C=C/c2ccc(N(C)C)cc2)nc2ccc(Cl)cc12 [compound 28, (E)-N^1-(6-Chloro-2-(4-(dimethylamino)styryl)quinolin-4-yl)-N^2,N^2-dimethylethane-1,2-diamine]
resistance index (RI) [1]: 1.3

CN(C)CCNc1cc(/C=C/c2ccc(F)cc2)nc2ccc(Cl)cc12 [compound 29, (E)-N^1-(6-Chloro-2-(4-fluorostyryl)quinolin-4-yl)-N^2,N^2-dimethylethane-1,2-diamine]
selectivity index (SI) [7]: > 1000
inhibition of β-hematin formation [4]: showed inhibitory activity toward β-hematin formation in a concentration-dependent manner
stage-specific action on cell cycle progression [6]: stage-specific action at the late trophozoite phase
metabolites / metabolic pathway identified by LC–MS [9]: monodemethylated (29-M1), bi-demethylated (29-M2), and oxidized products (29-M3)

COc1ccc2nc(/C=C/c3ccncc3)cc(NCCN(C)C)c2c1 [compound 41, (E)-N^1-(6-Methoxy-2-(2-(pyridin-4-yl)vinyl)quinolin-4-yl)-N^2,N^2-dimethylethane-1,2-diamine]
fold activity difference versus 2-pyridyl isomer 42 ([1]; Dd2): up to 30 fold

CN(C)CCNc1cc(/C=C/c2ccncc2)nc2ccc(Cl)cc12 [compound 50, (E)-N^1-(6-Chloro-2-(2-(pyridin-4-yl)vinyl)quinolin-4-yl)-N^2,N^2-dimethylethane-1,2-diamine]
resistance index (RI) [1]: < 1

CN1CCN(CCNc2cc(/C=C/c3ccc(F)cc3)nc3ccc(Cl)cc23)CC1 [compound 86, (E)-6-Chloro-2-(4-fluorostyryl)-N-(2-(4-methylpiperazin-1-yl)-ethyl)quinolin-4-amine]
fold more potent than analogue 95 ([1]; Dd2): ~2.5 fold
inhibition of β-hematin formation [4]: showed inhibitory activity toward β-hematin formation in a concentration-dependent manner
stage-specific action on cell cycle progression [6]: stage-specific action at the late trophozoite phase
metabolites / metabolic pathway identified by LC–MS [9]: Demethylated (86-M1) and oxidized products (86-M2)

Fc1ccc(/C=C/c2cc(NCCCCN3CCOCC3)c3cc(Cl)ccc3n2)cc1 [compound 92, (E)-6-Chloro-2-(4-fluorostyryl)-N-(4-morpholinobutyl)quinolin-4-amine]
fold improved potency compared with counterpart 81 ([1]; Dd2): ~2 fold
fold increase in inhibitory activity relative to compound 81 [10]: ~6 fold
fold increase in cytotoxicity relative to compound 81 ([7]; HepG2): 4.8 fold
selectivity index (SI) [7]: > 1000
metabolites / metabolic pathway identified by LC–MS [9]: breakage of the morpholine ring

Clc1ccc2nc(/C=C/c3ccncc3)cc(NCCCCN3CCOCC3)c2c1 [compound 93, (E)-6-Chloro-N-(4-morpholinobutyl)-2-(2-(pyridin-4-yl)vinyl)-quinolin-4-amine]
fold improved potency compared with counterpart 82 ([1]; Dd2): ~13 fold
EC50 [1]: ≤ 15 nM
metabolites / metabolic pathway identified by LC–MS [9]: breakage of the morpholine ring

FC(F)(F)c1ccc(/C=C/c2cc(NCCCCN3CCOCC3)c3cc(Cl)ccc3n2)cc1 [compound 98, (E)-6-Chloro-N-(4-morpholinobutyl)-2-(4-(trifluoromethyl)-Styryl)quinolin-4-amine]
metabolites / metabolic pathway identified by LC–MS [9]: breakage of the morpholine ring

Fc1ccc(/C=C/c2cc(NCCCCN3CCOCC3)c3cc(Cl)ccc3n2)c(F)c1 [compound 104, (E)-6-Chloro-2-(2,4-difluorostyryl)-N-(4-morpholinobutyl)-quinolin-4-amine]
fold more active than 103 ([1]; Dd2): ~2.5 fold

Fc1ccc(/C=C/c2cc(NCCCCN3CCOCC3)c3cc(Cl)ccc3n2)cc1F [compound 105, (E)-6-Chloro-2-(3,4-difluorostyryl)-N-(4-morpholinobutyl)-quinolin-4-amine]
fold more active than 103 ([1]; Dd2): ~7 fold
metabolites / metabolic pathway identified by LC–MS [9]: breakage of the morpholine ring

Fc1cnccc1/C=C/c1cc(NCCCCN2CCOCC2)c2cc(Cl)ccc2n1 [compound 109, (E)-6-Chloro-2-(2-(3-fluoropyridin-4-yl)vinyl)-N-(4-morpholinobutyl)quinolin-4-amine]
fold less active than counterpart 93 ([1]; Dd2): ~7.5 fold

(E)-4-(6-Chloro-2-(4-isocyanostyryl)quinolin-4-yl)morpholine [compound 64]
EC50 [1]: > 1000 nM
